Reference: article PMC4979516, “Quinazoline-based tricyclic compounds that regulate programmed cell death, induce neuronal differentiation, and are curative in animal models for excitotoxicity and hereditary brain disease” (Cell Death Discovery, 2015)
Entries after “also recorded” stand apart in the source; their conditions may differ.

B1: NGF: mouse NGF, 2.5S from Promega; classical agent to induce neuronal differentiation of PC12 cells (protein, UniProt P01139 122-241, looked up)
Beta-nerve growth factor: SSTHPVFHMGEFSVCDSVSVWVGDKTTATDIKGKEVTVLAEVNINNSVFRQYFFETKCRASNPVESGCRGIDSKHWNSYCTTTHTFVKALTTDEKQAAWRFIRIDTACVCVLSRKATRRG

Columns and labels:
[1] = molecular target: T1, 18 kDa translocator protein (TSPO) (Rattus norvegicus, UniProt P16257); assay: TSPO binding, displacement of [3H]PK 11195 in rat kidney membranes
T1 construct: 400 μl of homogenized rat kidney membranes (5 mg of homogenate/ml); from tissue; host or cells: rat kidney (homogenized membranes)
Description: After incubation for 60 min at 4 °C, samples were filtered under vacuum over Whatman GF/C filters and washed three times with 5 ml of 50 mM Tris-HCl buffer, pH 7.4. The filters were incubated in CytoScint (MP Biomedicals) and radioactivity was measured after 12 h with a 1600 CA Tri-Carb liquid scintillation analyzer (Packard). Inhibitory constant (Ki) values were calculated by the equation Ki=IC50/(1+C/Kd), where C=[^3H]

U118MG cells [2] = assay: LDH cytotoxicity assay, glutamate-induced cell death of U118MG cells; conditions: for Lethal effects of the compound (LDH): compound 10-100 μM by itself or with 35 mM glutamate; for Protection against glutamate-induced cell death (LDH): 35 mM glutamate, compound 10-100 μM, 24 h pretreatment
Description: (1) For U118MG cells, glutamate at a concentration of 35 mM was applied with or without MGV-1. As discussed, glutamate levels in normal healthy brain tissue can average 15 mM, and these levels can be doubled in diseased brain tissue, whereas in cell organelles glutamate levels can be as high as 250 mM (as discussed). […] In more detail, U118MG cells were seeded, 2×10^5 cells per well of 6-well plates and 6×10^3 cells per well of 96-well plates. Twenty-four hours after seeding, U118MG cells were pretreated with MGV-1 (or one of the other compounds) at various concentrations from 0.1 nM–100 μM. Twenty-four hours after the pretreatment, the cells were exposed to 35 mM of glutamate. […] The negative control was vehicle, that is, ethanol with a final concentration of 1%. […] The positive control was exposure to 35 mM of glutamate alone (with 200 μM of glycine).
Wells of 96-well plates were with 6000 cells per well and treated according the protocol presented above. We used the Cytotoxicity Detection Kit (LDH) (Roche Pharmacuticals) according to the manufacturer’s instructions. When cell plasma membranes are damaged, the cytoplasmic enzyme LDH is released into the medium. The amount of formazan formed is proportional to the amount of LDH released.[77] The resulting color intensity is proportional to the number of damaged cells. Absorbance at 492 nm with reference at 690 nm was measured with the Spectrophotometer Zenyth 200 (Anthos) and the results were calculated and normalized according to the formula presented by the manufacturer.

R6-2 mice = assay: R6-2 transgenic mouse model for Huntington disease (lifespan, behavior); type: in vivo; conditions: for Week of age until which 50% of treated R6-2 mice were still alive: 7.5 mg/kg s.c. daily 5 days per week, vehicle: 11th week (2-Cl-MGV-1 study), 10th week (2-Cl-MGV-2 study); for Uncontrollable tremor activity of R6-2 mice: 7.5 mg/kg s.c., data not shown; for Effect on behavior and lifespan of R6-2 mice: pilot studies, s.c. daily 5 days per week, MGV-1 15 mg/kg, PK 11195 15 mg/kg, MGV-2 15 and 7.5 mg/kg
Source text: Huntington disease in humans is a hereditary disease including neurodegeneration leading to degradation in motor performance, continual involuntary movements, tremors, cardiovascular and respiratory impairments, and finally leading to death of the patients having the disease.[88] For this study, R6-2 mice (~120 CAG repeats B6CBA-Tg(HDexon1)62 Gpb/3J) mice were used as a transgenic mouse model for Huntington disease. For this purpose, mice obtained from the Jackson Laboratory were bred. In particular, males hemizygous for Tg(HDexon1)62 Gpb, and females from the wild-type background strain B6CBAF1/J, were bred according to the protocol of Jackson Laboratory.
For tests of drug efficacy, male offspring hemizygous for Tg(HDexon1)62 Gpb were used to determine drug effect on lifespan, motor activity, and general well-being of the animals. Drug treatment for this study consisted of daily (5 continuous days per week) subcutaneous injections in the neck area of mice with 20 μl of: the drug vehicle DMSO (vehicle control), 2-Cl-MGV-1(7.5 mg/kg) and 2-Cl-MGV-2 (7.5 mg/kg). […] Quantities were used according to previous studies regarding TSPO ligands[48] and adapted depending on the findings in the course of the pilot studies. The treatments were given until the animals died a natural death. Behavioral experiments included distance covered in an open field apparatus,[89] freezing,[89] and balance on a rotor-rod.[90] Spontaneous tremor activity was evaluated using a Hamilton–Kinder sensor in a soundproof ventilated apparatus (Kinder Scientific). The assays for locomotor activity, tremors, and body weight were performed on a weekly basis, together with evaluation of the well-being of the mice. Finally, the day of death was noted. As lifespan data were most pronounced, these are presented in the present description of the results. No adverse effects of any of the drug treatments were noted, neither for specific tests, nor for general observations. Importantly, DMSO had no effect by itself as compared with naive mice or saline-injected mice with various behavioral assays.[20]

[3] = tested on: PC12 cells strain #1 (polygonal cells); assay: Neuronal differentiation (neurite sprouting) of PC12 strain #1; type: cell-based, rat; conditions: strain #1, only polygonal cells
[4] = tested on: NeuN expression in PC12 cells strain #3; assay: Western blot of NeuN in PC12 strain #3; type: cell-based, rat; conditions: PC12 strain #3, versus vehicle control
Description: The relative protein levels of TSPO and other proteins related to neurodifferentiation (including β-actin, NeuN, tubulin-3β), were assayed by immunoblotting with the aid electrophoresis through 12% SDS-polyacrylamide gel, according to previously described methods.[71] A priori, general protein levels were measured by the method of Bradford using BSA as a standard.[75] After electrophoresis, the gels were subjected to electrophoretic transfer to nitrocellulose membranes. Then, the membranes were blocked for 1 h in 5% non-fat milk in 62.5 mM sodium phosphate buffer, pH 7.4, containing 100 mM NaCl, and 0.1% (v/v) Tween-20 (PBS-T) and then incubated for 2 h or overnight at 4 °C with the appropriate antibodies: anti-tubulin-3β 1 : 10 000, anti-NeuN 1 : 1000, anti β-actin 1 : 15 000, and anti-TSPO 1 : 10 000.[73] After washing with TBS-T, the membranes were incubated with IgG secondary antibody linked to horseradish peroxidase (anti-rabbit IgG 1 : 20 000, anti-mouse IgG 1 : 10 000, as appropriate, from Jackson Immunologicals, West Grove, PA, USA) in TBS-T at room temperature. Binding of antibodies to the membrane was detected with the EZ-ECL-detection reagent (Biological Industries), using the ImageQuant LAS 4010 apparatus and Totallab Quant quantitative image analysis of Totallab (Newcastle upon Tyne, England).

U118MG cells [5] = assay: Mitochondrial membrane potential (JC-1) assay in U118MG cells exposed to glutamate; type: cell-based, human; conditions: 25 μM compound, 35 mM glutamate
Source text: JC-1 was used to assay changes in Δψm, as described previously.[71],[79] Owing to charges distributed along JC-1 molecules, they pass unimpaired (charged) mitochondrial membranes and enter the mitochondrial matrix. There the J-molecules form J-aggregates, which emit at 590 nm (orange–red fluorescence). […] The monomers emit at 527 nm (green fluorescence). A decrease in the red–green fluorescence intensity ratio is an indication for mitochondrial depolarization. As a positive control, the proton ionophore carbonyl cyanide m-chlorophenylhydrazone was used as described previously.[71] Cells were collected and prepared for suspension in 10 μg/ml of JC-1 solution in PBS. After incubation at 37 °C for 30 min in the dark, the cells were washed with 0.5 ml of PBS, and the cell suspensions were analyzed with the BD FACSCalibur flow cytometer.

U118MG cells [6] = assay: Mitochondrial ROS / cardiolipin oxidation (NAO) assay in U118MG cells exposed to glutamate; type: cell-based, human; conditions: 25 μM compound, 35 mM glutamate
Source text: Cardiolipin is present in the inner mitochondrial membrane, at the contact sites with the outer mitochondrial membrane. By application of NAO, we assayed cardiolipin peroxidation as an indication of mitochondrial ROS generation, as described previously.[71] NAO binds with high affinity to non-oxidized cardiolipin in a 2 : 1 ratio, but with less affinity to oxidized cardiolipin, the latter which is reflected by lower levels of green NAO fluorescence.[78] For our study, cells were collected and centrifuged at 1200×g for 5 min, 4 °C. Cell pellets were re-suspended in 0.5 ml of 0.1 μM NAO and incubated for 30 min at 37 °C in the dark. Then, the cells were washed once with 0.5 ml PBS and transferred into 5 ml FALCON FACS tubes and analyzed with the aid of a BD FACSCalibur flow cytometer using CellQuest software (BD Biosciences, Franklin Lakes, NJ, USA).

PC12 cells = assay: Neuronal differentiation of PC12 cells, strain not specified; type: cell-based, rat; conditions: agent by itself; MGV-1 50 μM
Description: For our newly developed differentiation method by MGV-1 in combination with glutamate, PC12 cells were plated onto poly-L-lysine coated culture plates and Petri dishes at a relatively low density (5.2×10^3 cells/cm^2 for six-well plates and 3.6×10^3 cells/cm^2 for Petri dishes), in DMEM medium containing 8% heat-inactivated FBS and 8% horse serum. […] Exposure to vehicle alone (culture medium with 1% of ethanol) was used as the control.
The major and determining indication of neural differentiation of PC12 cells is neurite development.[23],[80] […] The number of differentiated cells was determined by visual examination of the captured fields. In particular, a line was drafted at half height of the image and the cell bodies crossed by the line were further analyzed regarding differentiation. […] Cells with at least one identifiable neurite with a length at least equal to the cell body diameter were scored, and their number expressed as a percentage of the total number of cells crossed by said line. In addition, for each of these cells, the length of the longest neurite was determined (using AxioVision Image software, Zeiss). […]

T1 sequence (P16257 whole entry): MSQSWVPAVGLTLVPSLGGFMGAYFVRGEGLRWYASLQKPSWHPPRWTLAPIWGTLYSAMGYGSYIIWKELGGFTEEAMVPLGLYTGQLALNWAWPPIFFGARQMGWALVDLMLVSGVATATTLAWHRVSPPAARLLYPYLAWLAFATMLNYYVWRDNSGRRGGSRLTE

Molecule	Ki [1] [nM]	Lethal effects of the compound (LDH) (U118MG cells [2])	Protection against glutamate-induced cell death (LDH) (U118MG cells [2])	further results
CN(C)C(=O)Oc1nc(-c2ccccc2Cl)nc2ccccc12 [2-Cl-MGV-1, 2-(2-chlorophenyl)quinazolin-4-yl dimethylcarbamate]	825 ± 315	very little lethality by itself at any concentration; also recorded: shows the least lethal effects when applied just by itself	–	Week of age until which 50% of treated R6-2 mice were still alive (R6-2 mice): 12 week; Uncontrollable tremor activity of R6-2 mice (R6-2 mice): reduction of uncontrollable tremor activity
CCN(C)C(=O)Oc1nc(-c2ccccc2Cl)nc2ccccc12 [2-Cl-MGV-2, 2-(2-chlorophenyl)quinazolin-4-yl ethyl(methyl)carbamate]	80 ± 11	undesired lethal effect at high concentrations when given just by itself	protects excellently; also recorded: very effective in protecting against glutamate-induced cell death	Week of age until which 50% of treated R6-2 mice were still alive (R6-2 mice): 12 week; Uncontrollable tremor activity of R6-2 mice (R6-2 mice): reduction of uncontrollable tremor activity
CCN(CC)C(=O)Oc1nc(-c2ccccc2Cl)nc2ccccc12 [2-Cl-MGV-3, 2-(2-chlorophenyl)quinazolin-4-yl diethylcarbamate]	2.6 ± 1	undesired lethal effects at 50 and 100 μM both with and without glutamate exposure	–	–
N[C@@H](CCC(=O)O)C(=O)O [Glu, Glutamate, reference compound]	–	–	–	Differentiation of PC12 strain #1 by the agent by itself [3]: do not have this effect; Increase of NeuN expression (western blot) [4]: do not enhance NeuN expression significantly
CCN(C)C(=O)Oc1nc(-c2ccccc2)nc2ccccc12 [MGV-2, 2-phenylquinazolin-4-yl ethyl(methyl)carbamate]	80 ± 11	undesired lethal effects at high concentrations (in particular 100 μM)	protect against lethal effects of glutamate; also recorded: already quite effective at 10 μM	Prevention of collapse of the ΔΨm induced by glutamate (JC-1) (U118MG cells [5]): prevention of the collapse of the ΔΨm; Prevention of cardiolipin oxidation / mitochondrial ROS generation induced by glutamate (NAO) (U118MG cells [6]): prevent cardiolipin oxidation; Effect on behavior and lifespan of R6-2 mice (R6-2 mice): effects reminiscent of those of 2-Cl-MGV-1 and 2-Cl-MGV-2, but less consistent
CCN(CC)C(=O)Oc1nc(-c2ccccc2)nc2ccccc12 [MGV-3, 2-phenylquinazolin-4-yl diethylcarbamate]	2.6 ± 1	undesired lethal effects at high concentrations (in particular 100 μM)	protect against lethal effects of glutamate; also recorded: already quite effective at 10 μM	–
CCC(C)N(C)C(=O)c1cc2ccccc2c(-c2ccccc2Cl)n1 (centres unmarked) [PK 11195, N-butan-2-yl-1-(2-chlorophenyl)-N-methylisoquinoline-3-carboxamide, reference compound]	–	–	–	Neuronal differentiation of PC12 cells (neurite outgrowth) (PC12 cells): can differentiate PC12 cells; Effect on behavior and lifespan of R6-2 mice (R6-2 mice): did not show such effects
B1	–	–	–	Differentiation of PC12 strain #1 by the agent by itself [3]: do not have this effect; Increase of NeuN expression (western blot) [4]: do not enhance NeuN expression significantly
